Where “and” joins values, the source holds several entries; their conditions need not be identical. Identical values can stand only once. Like-named read-outs stand apart in the source and are kept apart here.
Experiments:
[1] = system: K1 strain of Plasmodium falciparum; experiment: In vitro susceptibility assay (microtest), P. falciparum K1 growth inhibition; type: cell-based; details: Plasmodium falciparum, K1, 48 h, K1 strain, 48 h, CI95 in brackets; read-out: P. falciparum IC50 (CI95)
Procedure: In vitro culture of the K1 strain of P. falciparum (MRA-159, MR4, ATCC, Manassas, Virginia, USA) proceeded following an established method with modifications. Briefly, this method involved the growth of parasites in human type A+ red blood cells and RPMI 1640 medium supplemented with 10% type A+ human plasma at 37 °C under an atmosphere of 5% O2, 5% CO2, and 90% N2.
As initial condition for the susceptibility assay, cultures were synchronized by treatment with 5% D-sorbitol, which provided young trophozoites (ring stages). Performance of the microtest followed a previously described procedure with modifications. Compounds were dissolved in DMSO with the aid of an ultrasound bath to provided stock solutions. […] These diluted samples were evaluated in duplicate in a 96-well test plate. A suspension of parasitized red blood cells (pRBCs) at 2% hematocrit and 1% parasitemia was added to each well. Microplate incubation proceeded for 48 h at 37 °C under the same atmosphere used for parasite culture in two independent experiments conducted on different days. Control wells contained chloroquine (0.003–2.5 μg/mL) and quinine (0.003–2.5 μg/mL). Six (6) control (blank) wells were prepared with pRBCs suspension. Six cosolvent control wells were prepared with 1% DMSO and pRBCs suspension. An average of these 12 controls defined drug-free (untreated) growth. After the incubation period, thin blood smears of the contents of each well were prepared on microscope slides. Optical microscopy was used to analyze the blood smears and establish the parasitemia of each well. Interpolation of the nonlinear curve using GraphPad Prism permitted the calculation of estimates of the sample concentrations able to inhibit 50% of parasite growth (IC50) compared to drug-free controls.

MRC-5 human fibroblasts [2] = experiment: Cytotoxicity/cell viability assay (Alamar blue); type: cell-based; details: MRC5, MRC-5, tested at 50 μg/mL for 48 h, read-out: fibroblasts IC50
Procedure: Medical Research Council cell strain 5 (MRC-5) human fetal fibroblasts were cultivated in Dulbecco′s modified Eagle’s medium (DMEM) supplemented with 10% bovine fetal serum and 1% antibiotic at 37 °C under an atmosphere of 5% CO2. Cell viability assessment relied on the Alamar blue method. […] Doxorubicin at concentrations of 0.312, 0.625, 1.25, 2.50, 5.00, 10.0, and 20.0 μM was used as a positive control for cell death. The negative control wells received DMSO (sample diluent) at 0.1%. In preparation for the assay, this method involved plating 0.5 × 10^4 cells/well on 96 well test plates and incubating for 24 h under the same conditions used for cell culture. This initial 24 h period was necessary for cell adhesion. The assay consisted of triplicate addition of diluted samples and controls to wells followed by 48 h of incubation. For quantification of viable cells, 10 μL of 0.4% Alamar blue (Sigma-Aldrich)–which works out to an in-well concentration of 0.02%–were added to each well 3 h before the end of the treatment. Alamar blue was allowed to react for 3 h followed by quantification of the optical density (OD) of each well at an excitation wavelength of 465 nm and emission wavelength of 540 nm using an ELISA plate reader (DTX-800, Beckman Coulter). Comparison of individual sample viability OD to that of controls (blanks) afforded the cell viability. Interpolation of the nonlinear curve using GraphPad Prism software permitted the calculation of estimates of the sample IC50 values compared to drug-free controls.

[3] = system: P. falciparum K1 strain vs MRC-5 human fibroblasts; experiment: Selectivity index, IC50 (human fibroblasts) ÷ IC50 (P. falciparum); type: cell-based, Plasmodium falciparum
From the text: Calculation of the selectivity index (SI) using the following formula afforded the relative toxicity of each sample to human fibroblasts and to P. falciparum blood stages: SI = IC50 (human fibroblasts) ÷ IC50 (P. falciparum).

[4] = system: variety of P. falciparum strains; details: chloroquine-resistant (Dd2, K1, W2) and chloroquine-sensitive (3D7, D6, D10, FCR3, FCR3TC) strains; ref literature (numbers not shown); read-out: IC50, in vitro growth; cited from earlier work
[5] = system: P. falciparum FCR3 strain; design: method as in literature (numbers not shown); details: ref literature (numbers not shown); cited from earlier work
P. falciparum K1 strain = system: P. falciparum K1 strain; design: method as in earlier work; details: ref previous reports incl. authors' earlier work (numbers not shown); cited from earlier work
P. falciparum Dd2 strain = details: ref recent study on C. guianensis (number not shown); cited from earlier work
P. falciparum W2 strain = system: P. falciparum W2 strain; design: method as in literature (numbers not shown); details: ref literature (numbers not shown), listed as gedunin; cited from earlier work
P. falciparum D10 strain = system: P. falciparum D10 strain; design: method as in literature (number not shown); details: ref literature (number not shown); cited from earlier work
Plasmodium berghei = details: P. berghei-infected mice, cited from earlier work
[6] = system: mouse mammary carcinoma (FM3A) cell cultures; design: method as in literature (number not shown); details: ref literature (number not shown); cited from earlier work
Hs578Bst cells = system: Hs578Bst cells; design: method as in literature (number not shown); details: immortalized, adult-derived normal cells; ref literature (number not shown); cited from earlier work
[7] = system: human mammary epithelial cells (HME); design: method as in literature (number not shown); details: ref literature (number not shown); cited from earlier work
MRC-5 human fibroblasts [8] = system: MRC-5 human fibroblasts; design: method as in authors' previous evaluation (number not shown); details: ref authors' previous evaluation (number not shown); cited from earlier work

SMILES	IC50 [1]	IC50 (MRC-5 human fibroblasts [2])	selectivity index (SI) [3]	IC50 [4]	IC50 [5]	IC50 (P. falciparum K1 strain)	IC50 (P. falciparum Dd2 strain)	IC50 (P. falciparum W2 strain)	IC50 (P. falciparum D10 strain)	suppression of parasite growth vs untreated controls (Plasmodium berghei; oral or subcutaneous 50–90 mg/kg/day, ref literature (numbers not shown))	toxicity to FM3A cells [6]	toxicity to Hs578Bst cells (Hs578Bst cells)	toxicity to HME cells [7]	IC50 (MRC-5 human fibroblasts [8])	suppression of parasitemia (Plasmodium berghei; oral 50–100 mg/kg/day, ref authors' earlier work (number not shown))
CC(=O)O[C@@H]1C[C@H]2C(C)(C)C(=O)C=C[C@]2(C)[C@H]2CC[C@@]3(C)[C@H](c4ccoc4)OC(=O)[C@H]4O[C@]43[C@@]21C (single isomer, unassigned) [compound 4, gedunin]	1.4 µg/mL and 2.8 µM	> 100 µM	>37	20 to 3100 nM	2500 nM	1.5 µM	2800 ± 200 nM	1310 ± 420 nM	1660 ± 370 nM	failed to significantly suppress parasite growth	toxic	no appreciable toxicity	no appreciable toxicity		
CC(=O)O[C@H]1[C@@H](OC(C)=O)[C@]2(C)[C@H](CC[C@@]3(C)[C@H](c4ccoc4)OC(=O)[C@H]4O[C@@]423)[C@@]2(C)C=CC(=O)C(C)(C)[C@H]12 [compound 12, 6α-acetoxygedunin]						7 µM	2100 ± 200 nM							> 110 µM	40–66%
